Earlier results in patent publication US20090099261A1, “Omega-3 mixtures” (ISI Brands Inc., priority 2007, published 2009).

Settings: dietary intake; Michael J. James et al., Am. J. Clin. Nutr. 77:1140-45 (2003)

| share of dietary fatty acid converted to EPA [%] | SMILES |
| --- | --- |
| ≤ 10 | CC/C=C\C/C=C\C/C=C\CCCCCCCC(=O)O [LNA, Linolenic acid] |
| 40 | CC/C=C\C/C=C\C/C=C\C/C=C\CCCCC(=O)O [SA, stearidonic acid] |
